Data set [1] is described as follows: Cell viability of BV-2 cells (MTT assay). The format is cell-based. Also on record: concentration or dose not given beside the values. The settings on record: mouse, mean ± SD, n = 3. As for the experimental part:
(§1) NO production was assessed indirectly using the Griess reaction by measuring nitrite concentration in a culture medium. BV-2 cells were cultured in Dulbecco’s Modified Eagle Medium, supplemented with 10% FBS, 100 units/mL of penicillin, and 100 μg/mL of streptomycin. These cells were seeded in 96-well plates at a density of 8 × 10^4 cells/well and incubated for 24 h. Post incubation, they were exposed to 100 ng/mL of LPS alongside different compound concentrations for 48 h. A mixture of 100 μL culture supernatant and Griess reagent was left at room temperature for 10 min, with absorbance later read at 570 nm. L-NMMA served as the positive control. Cell viability was determined using the MTT assay, and experiments were conducted in triplicate. The IC50 for NO production inhibition was computed using GraphPad Prism 7.00 software.

Data set [2] deals with NO production induced by LPS in BV-2 cells. In words: Inhibition of LPS-induced NO production in BV-2 cells (Griess method). As to conditions: for IC50: BV-2 cells, 100 ng/mL LPS, 48 h, Griess reaction, mean ± SD, n = 3; for Suppression of NO generation (result in words): LPS-triggered BV-2 cells, Griess method. The format is cell-based. Here is the method:
To assess the potential capabilities of all modified products in counteracting neuroinflammation, we measured their suppressive effects on NO generation within LPS-triggered BV-2 cells using the Griess method.
as §1

Entries after “also recorded” stand apart in the source; their conditions may differ.

Regarding `C[C@H]1[C@H](C)CC[C@]2(C(=O)O)CC[C@]3(C)C(=CC[C@@H]4[C@@]5(C)CCC(=O)C(C)(C)[C@@H]5CC[C@]43C)[C@H]12` [Compound 1, Ursonic acid], in data set [1], the viability at 48 h was found to be 98.8 ± 3.61%. The same molecule registered an IC50 in data set [2] (Mus musculus, BV-2, 48 h) of 84.7 ± 3.22 µM.

`C[C@H]1[C@H](C)C2C3=CCC4[C@@]5(C)CCC(=O)C(C)(C)C5CC[C@@]4(C)[C@]3(C)CC[C@@]2(C(=O)O)C[C@@H]1O` (stereo partly drawn) [Compound 2, 3-oxo-21β-hydroxy-12-en-urs-28-oic acid]: the viability at 48 h in data set [1] is 101 ± 2.45%. Further, the IC50 in data set [2] (Mus musculus, BV-2, 48 h) is 38.2 ± 4.09 µM.

Turning to `C[C@H]1[C@H](C)C2C3=CCC4[C@@]5(C)CCC(=O)C(C)(C)C5C[C@H](O)[C@@]4(C)[C@]3(C)CC[C@@]2(C(=O)O)C[C@@H]1O` (stereo partly drawn) [Compound 3, 3-oxo-7β,21β-dihydroxy-12-en-28-oic acid], the viability at 48 h in data set [1] came out at 100 ± 3.92%. Further, the IC50 in data set [2] (Mus musculus, BV-2, 48 h) was 20.9 ± 2.13 µM.

Take `C[C@@H]1C(=O)C[C@]2(C(=O)O)CC[C@]3(C)C(=CCC4[C@@]5(C)CCC(=O)C(C)(C)C5CC[C@]43C)C2[C@H]1C` (stereo partly shown) [Compound 4, 3,21-dioxo-urs-12-en-28-oic acid]: the viability at 48 h in data set [1] stood at 104 ± 3.18%. The “Suppression of NO generation (result in words)” value (“Suppression of NO generation” below) in data set [2] was “did not showcase any suppression capabilities”. In data set [2] (Mus musculus, BV-2, 48 h), this molecule yielded an IC50 greater than 100 µM.

`CC1C(=O)CC2(C(=O)O)CCC3(C)C(=CCC4C5(C)CCC(=O)C(C)(C)C5CC(O)C43C)C2C1C` (stereo not drawn) [Compound 5, 3,21-dioxo-7β-hydroxy-urs-12-en-28-oic acid]: the melting point is 251 to 254 °C. Besides, the viability at 48 h in data set [1] amounted to 101 ± 4.11%. Besides, in data set [2] (Mus musculus, BV-2, 48 h), it took 52.8 ± 3.34 µM to reach half-maximal inhibition (IC50).

Turning to `C[C@@H]1CC[C@]2(C(=O)O)CC[C@]3(C)C(=CC(=O)C4[C@@]5(C)CCC(=O)C(C)(C)C5CC[C@]43C)C2[C@H]1C` (stereo partly shown) [Compound 6, 3,11-dioxo-12-en-urs-28-oic acid], the viability at 48 h in data set [1] was 105 ± 4.23%. In addition, the IC50 in data set [2] (Mus musculus, BV-2, 48 h) turned out to be 50.2 ± 3.16 µM.

The molecule `COC1C=C2C3C(C)C(C)C(O)CC3(C(=O)O)CCC2(C)C2(C)CCC3C(C)(C)C(=O)CCC3(C)C12` (stereo not drawn) [Compound 7, 3-oxo-11α-methoxy-21β-hydroxy-urs-12-en-28-oic acid] returned a melting point of 268 to 271 °C. Further, the viability at 48 h in data set [1] worked out at 99.2 ± 3.72%. Moreover, the IC50 in data set [2] (Mus musculus, BV-2, 48 h) stood at 11.6 ± 2.01 µM.

On to `CC1C(O)CC23CCC4(C)C5(C)CCC6C(C)(C)C(=O)CCC6(C)C5C=CC4(OC2=O)C3C1C` (stereo not drawn) [Compound 8, 3-oxo-21β-hydroxy-urs-11-en-13β,28β-lactone], for which the melting point is 245 to 247 °C. The viability at 48 h in data set [1] amounted to 102 ± 3.54%. Further, the “Suppression of NO generation” value in data set [2] is reported as “did not showcase any suppression capabilities; also recorded: did not exhibit any inhibitory activities”. For the same molecule, the IC50 in data set [2] (Mus musculus, BV-2, 48 h) was greater than 100 µM.

`CC1C(O)CC23CCC4(C)C(C=CC5C6(C)CCC(=O)C(C)(C)C6CC(O)C54C)(OC2=O)C3C1C` (stereo not drawn) [Compound 9, 3-oxo-7β,21β-dihydroxy-urs-11-en-13β,28β-lactone] gave a melting point of 261 to 265 °C. In addition, the viability at 48 h in data set [1] is 104 ± 3.86%. In addition, the “Suppression of NO generation” value in data set [2] is given as “did not showcase any suppression capabilities; also recorded: did not exhibit any inhibitory activities”. The molecule further displayed an IC50 in data set [2] (Mus musculus, BV-2, 48 h) greater than 100 µM.

`COC1=CCC2(C)C(CCC3(C)C2CC=C2C4C(C)C(C)CCC4(C(=O)O)CCC23C)C1(C)C` (stereo not shown) [Compound 10, 3-methoxy-urs-2,12-dien-28-oic acid] displayed a melting point of 284 to 288 °C. In addition, in data set [1], the viability at 48 h amounted to 104 ± 4.05%. In data set [2], this molecule came in with an IC50 of 8.23 ± 2.61 µM. Moreover, the IC50 in data set [2] (Mus musculus, BV-2, 48 h) worked out at 8.2 µM.

In the case of `C[C@@H]1CC[C@]2(C(=O)O)CC[C@]3(C)C(=CCC4[C@@]5(C)CCC(=O)C(C)(C)C5CC[C@]43C)C2[C@]1(C)O` (stereo partly drawn) [Compound 11, 3-oxo-19α-hydroxy-12-en-urs-28-oic acid], the viability at 48 h in data set [1] stood at 101 ± 3.42%. In data set [2] (Mus musculus, BV-2, 48 h), the IC50 came out at 42.5 ± 3.7 µM.

In the case of `C[C@@H]1CC[C@]2(C(=O)O[C@@H]3O[C@H](CO)[C@@H](O)[C@H](O)[C@H]3O)CC[C@]3(C)C(=CCC4[C@@]5(C)CCC(=O)C(C)(C)C5CC[C@]43C)C2[C@H]1C` (stereo partly drawn) [Compound 12, ursonic acid-28-O-β-D-glucopyranosyl ester], the viability at 48 h in data set [1] amounted to 98.2 ± 4.37%. This molecule yielded an IC50 in data set [2] (Mus musculus, BV-2, 48 h) of 31.1 ± 3.98 µM.

As for `CC1C(O)CC23CCC4(C)C5(C)CCC6C(C)(C)C(=O)CCC6(C)C5C5OC5C4(OC2=O)C3C1C` (stereo not drawn) [Compound 13, 3-oxo-21β-hydroxyl-11β,12β-epoxyl-urs-13β,28β-lactone], the melting point is 257 to 263 °C. The viability at 48 h in data set [1] was 103 ± 3.59%. This molecule also registered an IC50 in data set [2] (Mus musculus, BV-2, 48 h) of 15.2 ± 3.07 µM.

Molecule `CC1C(O)CC23CCC4(C)C5(C)CCC6C(C)(C)C(=O)CC(O)C6(C)C5C5OC5C4(OC2=O)C3C1C` (stereo not drawn) [Compound 14, 3-oxo-1β,21β-dihydroxyl-11β,12β-epoxyl-urs-13β,28β-lactone] displayed a melting point of 278 to 280 °C. For the same molecule, in data set [1], the viability at 48 h worked out at 104 ± 4.92%. In data set [2] (Mus musculus, BV-2, 48 h), this molecule registered an IC50 of 22.6 ± 3.44 µM.

In the case of `CC1C(O)CC23CCC4(C)C5(C)C(O)CC6C(C)(C)C(=O)CCC6(C)C5C5OC5C4(OC2=O)C3C1C` (stereo not drawn) [Compound 15, 3-oxo-7α,21β-dihydroxyl-11β,12β-epoxyl-urs-13β,28β-lactone], the melting point lay within 270 to 274 °C. Besides, the viability at 48 h in data set [1] was 102 ± 3.18%. Also, in data set [2] (Mus musculus, BV-2, 48 h), 36.6 ± 2.33 µM corresponded to half-maximal inhibition (IC50).

`C[C@H]1[C@H](C)C2[C@@]3(CC[C@@]4(C)[C@@]5(C)C([C@H]6O[C@H]6[C@]24OC3=O)[C@@]2(C)CCC(=O)C(C)(C)C2C[C@@H]5O)C[C@@H]1O` (stereo partly drawn) [Compound 16, 3-oxo-7β,21β-dihydroxyl-11β,12β-epoxyl-urs-13β,28β-lactone] returned a melting point of 268 to 273 °C. The viability at 48 h in data set [1] is 97.8 ± 4.75%. Further, the IC50 in data set [2] was determined as 6.86 ± 3.52 µM. In data set [2] (Mus musculus, BV-2, 48 h), this molecule showed an IC50 of 6.9 µM.

On to `CC1C(=O)CC23CCC4(C)C5(C)C(O)CC6C(C)(C)C(=O)CCC6(C)C5C5OC5C4(OC2=O)C3C1C` (stereo not drawn) [Compound 17, 3,21-dioxo-7β-hydroxyl-11β,12β-epoxyl-urs-13β,28β-lactone], for which the melting point fell in the range of 247 to 249 °C. Also, the viability at 48 h in data set [1] stood at 100 ± 3.54%. In addition, half-maximal inhibition in data set [2] (Mus musculus, BV-2, 48 h) (IC50) required 40.8 ± 3.26 µM.

For the molecule `CC1C(O)CC23CCC4(C)C5(C)CCC6C(C)(C)C(=O)C=CC6(C)C5C5OC5C4(OC2=O)C3C1C` (stereo not drawn) [Compound 18, 3-oxo-21β-hydroxyl-11β,12β-epoxyl-urs-1-ene-13β,28β-lactone], the melting point lay in the range of 242 to 245 °C. In data set [1], the viability at 48 h was found to be 103 ± 3.26%. In addition, half-maximal inhibition in data set [2] (Mus musculus, BV-2, 48 h) (IC50) required 17.4 ± 2.72 µM.

As for `CC1=C2C(C3OC3C34OC(=O)C5(CCC23C)CC(O)C(C)C(C)C54)C2(C)CCC(=O)C(C)(C)C2C1` (stereo not drawn) [Compound 19, 3-oxo-21β-hydroxyl-7-methyl-11β,12β-epoxyl-7-ene-26-norurs-13β,28β-lactone], the melting point lay within 282 to 284 °C. Also, the viability at 48 h in data set [1] is 103 ± 3.03%. The IC50 in data set [2] came to 5.25 ± 3.19 µM. This molecule registered an IC50 in data set [2] (Mus musculus, BV-2, 48 h) of 5.3 µM.

Consider `[H]/N=C(/NC)NCCC[C@H](N)C(=O)O` [L-NMMA, reference compound], for which, in data set [1], the viability at 48 h stood at 101 ± 4.36%. This molecule also showed an IC50 in data set [2] (Mus musculus, BV-2, 48 h) of 28.2 ± 2.97 µM.
